How the values were obtained:
Format in all cases: in vivo
[1] = tested on: maize; experiment: Test D pre-emergence, maize seed treated with a herbicide safener; details: preemergent; for damage to plant (100=total damage to plant; 0=no damage to plant), ZEAMX: 20 DAA; for ZEAMX damage to plant (100=total damage; 0=no damage): safener-treated seed
Procedure: (§1) A formulation containing 50 g/L of the test chemical was prepared by dissolving the active ingredient in a mixture of organic solvents and emulsifier, details of which are provided in the table. This formulation was then mixed with a small, variable amount of acetone to aid dissolution, before addition of a 0.2% v/v aqueous solution of an adjuvant, as the aqueous diluent, to form an aqueous spray solution which contains a predetermined concentration of the active ingredient.
(§2) This aqueous spray solution was then sprayed onto plants including maize and wheat that had been seed treated with a herbicide safener, after one day's cultivation (for pre-emergence) or after about 12 days' cultivation (for post-emergence). The plants were grown from seeds sown in standard soil, placed in a glasshouse under controlled conditions (at 24/18° C. or 20/16° C., day/night; 16 h light; 65% humidity). After spray application the plants were then grown in a glasshouse under the same conditions and watered twice daily. After 15 d for post-emergence and 20 DAA for pre-emergence the test was evaluated (100=total damage to plant; 0=no damage to plant).

[2] = tested on: corn (Zea mays, ZEAMX); experiment: Test A pre-emergence, corn; details: after 13 d
How it was run: (§3)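 Values are percent plant damage 13 d after a pre-emergence spray (15.625, 62.5 or 250 g/ha; acetone/water with 0.5% Tween 20) applied to pots one day post-sowing, under glasshouse conditions of 24/16° C. and twice-daily watering.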

[3] = tested on: barnyardgrass (Echinochloa crus-galli, ECHCG); experiment: Test A pre-emergence, barnyardgrass; details: after 13 d
How it was run: as §3

[4] = tested on: maize; experiment: Test D post-emergence, maize seed treated with a herbicide safener
Procedure: as §1, §2

Row | SMILES | damage to plant (100=total damage to plant; 0=no damage to plant), ZEAMX ([1]; rate 15) | damage to plant (100=total damage to plant; 0=no damage to plant), ZEAMX ([1]; rate 30) | damage to plant (100=total damage to plant; 0=no damage to plant), ZEAMX ([1]; rate 60) | damage to plant (100=total damage to plant; 0=no damage to plant), ZEAMX ([1]; rate 130) | damage to plant (100=total damage to plant; 0=no damage to plant), ZEAMX ([1]; rate 250) | damage to plant (100=total damage to plant; 0=no damage to plant), ZEAMX ([1]; rate 500) | damage to plant (100=total damage; 0=no damage) ZEAMX ([2]; Pre-Emergence at 15.625 g/ha) | damage to plant (100=total damage; 0=no damage) ZEAMX ([2]; Pre-Emergence at 62.5 g/ha) | damage to plant (100=total damage; 0=no damage) ZEAMX ([2]; Pre-Emergence at 250 g/ha) | damage to plant (100=total damage; 0=no damage) ECHCG ([3]; Pre-Emergence at 15.625 g/ha) | damage to plant (100=total damage; 0=no damage) ECHCG ([3]; Pre-Emergence at 62.5 g/ha) | damage to plant (100=total damage; 0=no damage) ECHCG ([3]; Pre-Emergence at 250 g/ha) | further results
1 | CN1CC(c2cnn(C)c2C(F)(F)F)C(C(=O)Nc2cccc(F)c2F)C1=O (racemic) [Compound 25] | 0 | 0 | 0 | 0 | 0 | 0 | 0 | 0 | 20 | 90 | 100 | 100 | 
2 | CCn1nc([C@H]2CN(C)C(=O)[C@@H]2C(=O)Nc2cccc(F)c2F)c2c(F)cccc21 [Compound 7] | 0 | 0 | 0 | 0 | 0 | 10 | 20 | 30 | 90 | 70 | 80 | 90 | damage to plant (100=total damage to plant; 0=no damage to plant), ZEAMX ([4]; rate 130, evaluated after 15 d): 0; damage to plant (100=total damage to plant; 0=no damage to plant), ZEAMX ([4]; rate 250, evaluated after 15 d): 0; damage to plant (100=total damage to plant; 0=no damage to plant), ZEAMX ([4]; rate 500, evaluated after 15 d): 10
3 | CCn1nc([C@H]2CN(C)C(=O)[C@@H]2C(=O)Nc2cccc(F)c2F)c2ccc(F)cc21 [Compound 4] | 0 | 0 | 0 | 0 | 0 | 10 | 0 | 40 | 80 | 90 | 90 | 100 | 
4 | CN1CC(c2cc(C(F)(F)F)n(C)n2)C(C(=O)Nc2ccccc2F)C1=O (racemic) [Compound 9] | 0 | 0 | 0 | 0 | 0 | 0 | 50 | 0 | 20 | 80 | 90 | 90 | 
5 | CN1CC(c2cc(Cl)n(C)n2)C(C(=O)Nc2ccc(F)c(F)c2F)C1=O (racemic) [Compound 31] |  |  |  |  |  |  | 0 | 10 | 20 | 60 | 80 | 80 | ZEAMX damage to plant (100=total damage; 0=no damage) ([1]; Rates 15, 20 DAA): 0; ZEAMX damage to plant (100=total damage; 0=no damage) ([1]; Rates 30, 20 DAA): 0; ZEAMX damage to plant (100=total damage; 0=no damage) ([1]; Rates 60, 20 DAA): 0; ZEAMX damage to plant (100=total damage; 0=no damage) ([1]; Rates 130, 20 DAA): 0; ZEAMX damage to plant (100=total damage; 0=no damage) ([1]; Rates 250, 20 DAA): 0; ZEAMX damage to plant (100=total damage; 0=no damage) ([1]; Rates 500, 20 DAA): 0

From patent US20220281848A1, “PYRAZOLE-SUBSTITUTED PYRROLIDINONES AS HERBICIDES” (FMC Corporation, priority 2019, published 2022)
